Measured values: patent US20160122406A1, “ANALOGS OF PITUITARY ADENYLATE CYCLASE-ACTIVATING POLYPEPTIDE (PACAP) AND METHODS FOR THEIR USE” (THE ADMINISTRATORS OF THE TULANE EDUCATIONAL FUND, priority 2013, published 2016)
Entries after “also recorded” stand apart in the source; their conditions may differ. Square brackets hold non-standard residues; d marks the D form. * marks the point of attachment. Iac = imidazole-4-acrylic acid, O=C(/C=C/c1c[nH]cn1)*; Acetyl(2-(4-imidazolyl)) = O=C(Cc1c[nH]cn1)*

Tested on: Male Sprague-Dawley rats
Assay: Arterial blood pressure and heart rate after intravenous injection in anesthetized rats
Type: in vivo
Details: 10 micrograms i.v.; for change in arterial blood pressure / change in arterial pulse pressure: isoflurane-anesthetized rats; for heart rate before intravenous injection: the 'from' value; for heart rate after intravenous injection: the 'to' value
From the text: FIG. 9 is a graph showing the changes in arterial blood pressure caused by [Iaa^1]PACAP38, [Iaa^1,D-Ser^2]PACAP38, [Iaa^1,Ala^22]PACAP38, and [Iaa^1,D-Ser^2,Ala^22]PACAP38. Male Sprague-Dawley rats (300-325 g) were anesthetized with 5% isoflurane for induction and then intubated. The rats were then ventilated (Hallowell EMC) with 100% O2 and 1-2% isoflurane. A PE-50 cannula was then placed in the femoral artery and connected to a pressure transducer. The arterial pressure signal was sent to an electronic chart recorder (BioPac). Heart rate was electronically derived from the arterial pressure signal. A similar PE-50 cannula was also placed in the femoral vein to allow for intravenous injection of the test peptides. Ten micrograms of the test peptides were injected intravenously in 100 μl of 0.9% NaCl in a random order and the cannula was immediately flushed with 100 μl of 0.9% NaCl. Changes in blood pressure and heart rate were calculated from the electronic record. […] Intravenous injection of [Iaa1]PACAP38 or [Iaa1,Ala22]PACAP38 also produced an increase in the heart rate from 378 bpm to 425 bpm or from 415 bpm to 440 bpm, respectively.
FIG. 10 is a graph showing the changes in arterial blood pressure caused by [Iac^1]PACAP38, [Iac^1,Ala^22]PACAP38, [Iac^1,D-Ser^2,Ala^22]PACAP38, and [Iaa^1,Ala^16,17,D-Lys^38]PACAP38. Male Sprague-Dawley rats (300-325 g) were anesthetized with 5% isoflurane for induction and then intubated. The rats were then ventilated (Hallowell EMC) with 100% O2 and 1-2% isoflurane. A PE-50 cannula was then placed in the femoral artery and connected to a pressure transducer. The arterial pressure signal was sent to an electronic chart recorder (BioPac). Heart rate was electronically derived from the arterial pressure signal. A similar PE-50 cannula was also placed in the femoral vein to allow for intravenous injection of the test peptides. Ten micrograms of the test peptides were injected intravenously in 100 μl of 0.9% NaCl in a random order and the cannula was immediately flushed with 100 μl of 0.9% NaCl. Changes in blood pressure and heart rate were calculated from the electronic record. Intravenous injection of [Iac^1,Ala^22]PACAP38 or [Iac^1,D-Ser^2,Ala^22]PACAP38 produced an increase in the heart rate from 416 bpm to 435 bpm or from 420 bpm to 441 bpm, respectively.
PACAP38 is a directly-acting arterial vasodilator and an indirectly-acting arterial vasoconstrictor. The rapid vasodilator response to intravenous administration of PACAP38 is due to stimulation of PAC1, VPAC1 and VPAC2 receptors in the blood vessels, while the slightly delayed vasoconstrictor response is mainly due to stimulation of PAC1 receptors in the adrenal medulla and the subsequent release of adrenal catecholamines. […] The critical parameter for picking a PACAP38 analog for treating a specific disease is not potency but therapeutic index.

Substance	change in arterial blood pressure	pattern of the arterial blood pressure response (compared with other peptides)	heart rate before intravenous injection	heart rate after intravenous injection	change in the heart rate (in words)	change in arterial pulse pressure	change in arterial blood pressure (D-Lys38]PACAP38)	change in arterial pulse pressure (D-Lys38]PACAP38)	duration of the arterial blood pressure response (compared with [Iaa1]PACAP38)
Iaa D-Ser Asp Gly Ile Phe Thr Asp Ser Tyr Ser Arg Tyr Arg Lys Gln Met Ala Val Lys Lys Ala Leu Ala Ala Val Leu Gly Lys Arg Tyr Lys Gln Arg Val Lys Asn Lys-NH2 ({Acetyl(2-(4-imidazolyl))}-[dS]DGIFTDSYSRYRKQMAVKKALAAVLGKRYKQRVKNK-NH2; SMILES CC[C@H](C)[C@H](NC(=O)CNC(=O)[C@H](CC(=O)O)NC(=O)[C@@H](CO)NC(=O)Cc1c[nH]cn1)C(=O)N[C@@H](Cc1ccccc1)C(=O)N[C@H](C(=O)N[C@@H](CC(=O)O)C(=O)N[C@@H](CO)C(=O)N[C@@H](Cc1ccc(O)cc1)C(=O)N[C@@H](CO)C(=O)N[C@@H](CCCNC(=N)N)C(=O)N[C@@H](Cc1ccc(O)cc1)C(=O)N[C@@H](CCCNC(=N)N)C(=O)N[C@@H](CCCCN)C(=O)N[C@@H](CCC(N)=O)C(=O)N[C@@H](CCSC)C(=O)N[C@@H](C)C(=O)N[C@H](C(=O)N[C@@H](CCCCN)C(=O)N[C@@H](CCCCN)C(=O)N[C@@H](C)C(=O)N[C@@H](CC(C)C)C(=O)N[C@@H](C)C(=O)N[C@@H](C)C(=O)N[C@H](C(=O)N[C@@H](CC(C)C)C(=O)NCC(=O)N[C@@H](CCCCN)C(=O)N[C@@H](CCCNC(=N)N)C(=O)N[C@@H](Cc1ccc(O)cc1)C(=O)N[C@@H](CCCCN)C(=O)N[C@@H](CCC(N)=O)C(=O)N[C@@H](CCCNC(=N)N)C(=O)N[C@H](C(=O)N[C@@H](CCCCN)C(=O)N[C@@H](CC(N)=O)C(=O)N[C@@H](CCCCN)C(N)=O)C(C)C)C(C)C)C(C)C)[C@@H](C)O) [[Iaa^1,D-Ser^2,Ala^22]PACAP38]	slight increase; also recorded: slightly increased	expected physiological signature of a highly selective PAC1 receptor agonist	410 bpm	457 bpm	–	–	–	–	–
Iaa Ser Asp Gly Ile Phe Thr Asp Ser Tyr Ser Arg Tyr Arg Lys Ala Ala Ala Val Lys Lys Tyr Leu Ala Ala Val Leu Gly Lys Arg Tyr Lys Gln Arg Val Lys Asn D-Lys-NH2 ({Acetyl(2-(4-imidazolyl))}-SDGIFTDSYSRYRKAAAVKKYLAAVLGKRYKQRVKN[dK]-NH2; SMILES CC[C@H](C)[C@H](NC(=O)CNC(=O)[C@H](CC(=O)O)NC(=O)[C@H](CO)NC(=O)Cc1c[nH]cn1)C(=O)N[C@@H](Cc1ccccc1)C(=O)N[C@H](C(=O)N[C@@H](CC(=O)O)C(=O)N[C@@H](CO)C(=O)N[C@@H](Cc1ccc(O)cc1)C(=O)N[C@@H](CO)C(=O)N[C@@H](CCCNC(=N)N)C(=O)N[C@@H](Cc1ccc(O)cc1)C(=O)N[C@@H](CCCNC(=N)N)C(=O)N[C@@H](CCCCN)C(=O)N[C@@H](C)C(=O)N[C@@H](C)C(=O)N[C@@H](C)C(=O)N[C@H](C(=O)N[C@@H](CCCCN)C(=O)N[C@@H](CCCCN)C(=O)N[C@@H](Cc1ccc(O)cc1)C(=O)N[C@@H](CC(C)C)C(=O)N[C@@H](C)C(=O)N[C@@H](C)C(=O)N[C@H](C(=O)N[C@@H](CC(C)C)C(=O)NCC(=O)N[C@@H](CCCCN)C(=O)N[C@@H](CCCNC(=N)N)C(=O)N[C@@H](Cc1ccc(O)cc1)C(=O)N[C@@H](CCCCN)C(=O)N[C@@H](CCC(N)=O)C(=O)N[C@@H](CCCNC(=N)N)C(=O)N[C@H](C(=O)N[C@@H](CCCCN)C(=O)N[C@@H](CC(N)=O)C(=O)N[C@H](CCCCN)C(N)=O)C(C)C)C(C)C)C(C)C)[C@@H](C)O) [[Iaa^1,Ala^16,17,D-Lys^38]PACAP38]	large and prolonged decrease	–	–	–	large decrease	large and prolonged decrease	large decrease	large decrease	much longer
Iaa Ser Asp Gly Ile Phe Thr Asp Ser Tyr Ser Arg Tyr Arg Lys Gln Met Ala Val Lys Lys Ala Leu Ala Ala Val Leu Gly Lys Arg Tyr Lys Gln Arg Val Lys Asn Lys-NH2 ({Acetyl(2-(4-imidazolyl))}-SDGIFTDSYSRYRKQMAVKKALAAVLGKRYKQRVKNK-NH2; SMILES CC[C@H](C)[C@H](NC(=O)CNC(=O)[C@H](CC(=O)O)NC(=O)[C@H](CO)NC(=O)Cc1c[nH]cn1)C(=O)N[C@@H](Cc1ccccc1)C(=O)N[C@H](C(=O)N[C@@H](CC(=O)O)C(=O)N[C@@H](CO)C(=O)N[C@@H](Cc1ccc(O)cc1)C(=O)N[C@@H](CO)C(=O)N[C@@H](CCCNC(=N)N)C(=O)N[C@@H](Cc1ccc(O)cc1)C(=O)N[C@@H](CCCNC(=N)N)C(=O)N[C@@H](CCCCN)C(=O)N[C@@H](CCC(N)=O)C(=O)N[C@@H](CCSC)C(=O)N[C@@H](C)C(=O)N[C@H](C(=O)N[C@@H](CCCCN)C(=O)N[C@@H](CCCCN)C(=O)N[C@@H](C)C(=O)N[C@@H](CC(C)C)C(=O)N[C@@H](C)C(=O)N[C@@H](C)C(=O)N[C@H](C(=O)N[C@@H](CC(C)C)C(=O)NCC(=O)N[C@@H](CCCCN)C(=O)N[C@@H](CCCNC(=N)N)C(=O)N[C@@H](Cc1ccc(O)cc1)C(=O)N[C@@H](CCCCN)C(=O)N[C@@H](CCC(N)=O)C(=O)N[C@@H](CCCNC(=N)N)C(=O)N[C@H](C(=O)N[C@@H](CCCCN)C(=O)N[C@@H](CC(N)=O)C(=O)N[C@@H](CCCCN)C(N)=O)C(C)C)C(C)C)C(C)C)[C@@H](C)O) [[Iaa^1,Ala^22]PACAP38]	large decrease	–	415 bpm	440 bpm	–	–	–	–	–
Iac D-Ser Asp Gly Ile Phe Thr Asp Ser Tyr Ser Arg Tyr Arg Lys Gln Met Ala Val Lys Lys Ala Leu Ala Ala Val Leu Gly Lys Arg Tyr Lys Gln Arg Val Lys Asn Lys-NH2 (Iac-[dS]DGIFTDSYSRYRKQMAVKKALAAVLGKRYKQRVKNK-NH2) [[Iac^1,D-Ser^2,Ala^22]PACAP38]	–	–	420 bpm	441 bpm	–	–	–	–	–
Iac Ser Asp Gly Ile Phe Thr Asp Ser Tyr Ser Arg Tyr Arg Lys Gln Met Ala Val Lys Lys Ala Leu Ala Ala Val Leu Gly Lys Arg Tyr Lys Gln Arg Val Lys Asn Lys-NH2 (Iac-SDGIFTDSYSRYRKQMAVKKALAAVLGKRYKQRVKNK-NH2) [[Iac^1,Ala^22]PACAP38]	–	–	416 bpm	435 bpm	–	–	–	–	–
